Like-named read-outs stand apart in the source and are kept apart here.
Legend:
citrus rust mites = assay: Field experiment, citrus rust mite on pink grapefruit in Florida (Table XI); type: in vivo, Phyllocoptruta oleivora
Procedure: Citrus (pink grapefruit) trees (which were 5-7 years old) infested with citrus rust mites (Phyllocoptrura oleivora) were sprayed using a hydraulic handgun at 250 psi. Each tree was sprayed until runoff.
Each treatment consisted of three replicates. Thirty-three leaves from each tree were evaluated for percent leaf area not infested by mites. These evaluations were done before the application of treatments and 7 and 14 days after the application of treatments.

2-spotted spider mites [1] = assay: Residual activity on bean leaves against 2-spotted spider mites (Table X); type: in vivo; conditions: Tetranychus urticae
Procedure: (§1) A solution of Triton X-155 in acetone (1000 ppm) was used to dissolve the material under test and the resultant solution was diluted with water to obtain a mixture of 10% acetone and 100 ppm of Triton X-155 in water. Further dilution of this stock solution as required in a test was done by using Triton X-155 at 100 ppm in water so that a constant ratio of the surfactant was maintained at all levels. Where emulsifiable oil was used in the treatments, the solutions were prepared in such a way that the final solutions contained 0.06% v/v of the oil.
(§2) Leaves of Sieva bean plants grown from seeds planted 14-21 days earlier were used in all the tests. Twospotted spider mites (Tetranychus urticae) were cultured continuously on sieva bean plants growing in an insectary under continuous lighting at 75° F.
On Day 0, eight uninfested leaves were treated by immersion in the treatment solution. On Day 7, all the leaves were infested with a mixed population of mites. On Day 13, mortality was assessed on four of the leaves and on Day 19 on the remaining four leaves.

2-spotted spider mites [2] = assay: Contact activity on bean leaves against 2-spotted spider mites (Table X); type: in vivo, Tetranychus urticae; conditions: for mortality at 0.015 ppm / mortality at 0.04 ppm / mortality at 0.06 ppm / mortality at 0.25 ppm: Tetranychus urticae
Procedure: as §1, §2
On day 0, eight leaves which had been infested with mites 24 hours earlier were dipped in the treatment solution. On Day 5, mortality was assessed on four of the leaves and on Day 12 on the remaining four leaves.

[3] = 144 h, read-out: mortality, adults
[4] = 144 h, read-out: mortality, nymphs
[5] = 288 h, read-out: mortality, adults
[6] = 288 h, read-out: mortality, larvae
[7] = 288 h, read-out: mortality, nymphs
[8] = 120 h, read-out: mortality, adults

For `CC1=C[C@H]2C(=O)O[C@H]3C[C@@H](C/C=C(\C)C[C@@H](C)/C=C/C=C4\CO[C@H]([C@@H]1O)[C@@]42O)O[C@@]1(CC[C@H](C)[C@@H](C(C)C)O1)C3` [Milbemycin B-41D, 13-deoxy-22,23-dihydro avermectin B1b aglycone], the Percent control (citrus rust mites; 0.04 oz ai/100 gal, 7 days after treatment) was 14%, the Percent control (citrus rust mites; 0.04 oz ai/100 gal, 14 days after treatment) was 13% and the Percent control (citrus rust mites; 0.2 oz ai/100 gal, 7 days after treatment) was 16%. The Percent control (citrus rust mites; 0.2 oz ai/100 gal, 14 days after treatment) was 18%, the mortality at 0.25 ppm (2-spotted spider mites [1]; [3]) was 0% and the mortality at 1 ppm (2-spotted spider mites [1]; [3]) was 0%. It also gave a mortality at 4 ppm (2-spotted spider mites [1]; [3]) of 6%, a mortality at 16 ppm (2-spotted spider mites [1]; [3]) of 50% and a mortality at 0.25 ppm (2-spotted spider mites [1]; [4]) of 0%. It also gave a mortality at 1 ppm (2-spotted spider mites [1]; [4]) of 0%, a mortality at 4 ppm (2-spotted spider mites [1]; [4]) of 0% and a mortality at 16 ppm (2-spotted spider mites [1]; [4]) of 57%. The mortality at 0.25 ppm (2-spotted spider mites [1]; [5]) was 0%, the mortality at 1 ppm (2-spotted spider mites [1]; [5]) was 0% and the mortality at 4 ppm (2-spotted spider mites [1]; [5]) was 15%. It also gave a mortality at 16 ppm (2-spotted spider mites [1]; [5]) of 88%, a mortality at 0.25 ppm (2-spotted spider mites [1]; [6]) of 0% and a mortality at 1 ppm (2-spotted spider mites [1]; [6]) of 0%. The mortality at 4 ppm (2-spotted spider mites [1]; [6]) was 53%, the mortality at 16 ppm (2-spotted spider mites [1]; [6]) was 100% and the mortality at 0.25 ppm (2-spotted spider mites [1]; [7]) was 0%. The mortality at 1 ppm (2-spotted spider mites [1]; [7]) was 0%, the mortality at 4 ppm (2-spotted spider mites [1]; [7]) was 2% and the mortality at 16 ppm (2-spotted spider mites [1]; [7]) was 78%. For the same molecule, the mortality at 0.015 ppm (2-spotted spider mites [2]; [8]) was 66%, the mortality at 0.04 ppm (2-spotted spider mites [2]; [8]) was 79% and the mortality at 0.06 ppm (2-spotted spider mites [2]; [8]) was 92%. For the same molecule, the mortality at 0.25 ppm (2-spotted spider mites [2]; [8]) was 100%, the mortality at 0.015 ppm (2-spotted spider mites [2]; [5]) was 0% and the mortality at 0.04 ppm (2-spotted spider mites [2]; [5]) was 0%. For the same molecule, the mortality at 0.06 ppm (2-spotted spider mites [2]; [5]) was 38%, the mortality at 0.25 ppm (2-spotted spider mites [2]; [5]) was 43% and the mortality at 0.015 ppm (2-spotted spider mites [2]; [6]) was 0%. The mortality at 0.04 ppm (2-spotted spider mites [2]; [6]) was 0%, the mortality at 0.06 ppm (2-spotted spider mites [2]; [6]) was 91% and the mortality at 0.25 ppm (2-spotted spider mites [2]; [6]) was 100%. The mortality at 0.015 ppm (2-spotted spider mites [2]; [7]) was 0%, the mortality at 0.04 ppm (2-spotted spider mites [2]; [7]) was 0% and the mortality at 0.06 ppm (2-spotted spider mites [2]; [7]) was 56%. The mortality at 0.25 ppm (2-spotted spider mites [2]; [7]) was 67% and the “potency in short term contact studies” value (2-spotted spider mites [2]; avermectin B1a/B1b versus milbemycin B-41D) was “comparable potency”.
